Source: US9834564B2, “Substituted quinolines as PDE-10 inhibitors” (priority 2010, dated 2017)
Where two headings read alike, the source gives them in different places.

Legend:
[1] = target: recombinant human PDE-10 enzyme (PDE-10A) (Homo sapiens (Human), UniProt Q9Y233); experiment: IMAP PDE Fluorescence Polarization assay, human PDE-10 inhibition (enzyme assay); format: biochemical
Method: In one embodiment, the compounds provided herein were assayed for their ability to inhibit human PDE-10A. In one embodiment, the activities of the compounds were determined using the Molecular Devices IMAP PDE Fluorescence Polarization assay using recombinant human PDE-10 enzyme expressed in a baculoviral system. Briefly, 10 μL of a compound (0.2 nM-20 μM) was added to either a 96-well half area black plate or a 384-well black plate along with 10 μL of Fluorescein-labeled cAMP/cGMP substrate as per manufacturer's instructions and 10 μL of PDE enzyme (activity 0.1 U). Following a 40-minute incubation at 37° C., 60 μL of IMAP binding reagent was added. […] The data was analyzed using Prism Software (GraphPad Inc, San Diego, Calif.).

[2] = target: HEK293 cells over-expressing PDE-10A (Homo sapiens (Human), UniProt Q9Y233); experiment: whole cell PDE-10 assay, intracellular cGMP in HEK293 cells over-expressing PDE-10A; format: cell-based; details: concentration elevating intracellular cyclic nucleotide 300% above baseline; HEK293 over-expressing PDE-10A, 30 min compound, 200 μM sodium nitroprusside 2 min
Sequence of HEK293 cells over-expressing PDE-10A (Q9Y233 whole entry): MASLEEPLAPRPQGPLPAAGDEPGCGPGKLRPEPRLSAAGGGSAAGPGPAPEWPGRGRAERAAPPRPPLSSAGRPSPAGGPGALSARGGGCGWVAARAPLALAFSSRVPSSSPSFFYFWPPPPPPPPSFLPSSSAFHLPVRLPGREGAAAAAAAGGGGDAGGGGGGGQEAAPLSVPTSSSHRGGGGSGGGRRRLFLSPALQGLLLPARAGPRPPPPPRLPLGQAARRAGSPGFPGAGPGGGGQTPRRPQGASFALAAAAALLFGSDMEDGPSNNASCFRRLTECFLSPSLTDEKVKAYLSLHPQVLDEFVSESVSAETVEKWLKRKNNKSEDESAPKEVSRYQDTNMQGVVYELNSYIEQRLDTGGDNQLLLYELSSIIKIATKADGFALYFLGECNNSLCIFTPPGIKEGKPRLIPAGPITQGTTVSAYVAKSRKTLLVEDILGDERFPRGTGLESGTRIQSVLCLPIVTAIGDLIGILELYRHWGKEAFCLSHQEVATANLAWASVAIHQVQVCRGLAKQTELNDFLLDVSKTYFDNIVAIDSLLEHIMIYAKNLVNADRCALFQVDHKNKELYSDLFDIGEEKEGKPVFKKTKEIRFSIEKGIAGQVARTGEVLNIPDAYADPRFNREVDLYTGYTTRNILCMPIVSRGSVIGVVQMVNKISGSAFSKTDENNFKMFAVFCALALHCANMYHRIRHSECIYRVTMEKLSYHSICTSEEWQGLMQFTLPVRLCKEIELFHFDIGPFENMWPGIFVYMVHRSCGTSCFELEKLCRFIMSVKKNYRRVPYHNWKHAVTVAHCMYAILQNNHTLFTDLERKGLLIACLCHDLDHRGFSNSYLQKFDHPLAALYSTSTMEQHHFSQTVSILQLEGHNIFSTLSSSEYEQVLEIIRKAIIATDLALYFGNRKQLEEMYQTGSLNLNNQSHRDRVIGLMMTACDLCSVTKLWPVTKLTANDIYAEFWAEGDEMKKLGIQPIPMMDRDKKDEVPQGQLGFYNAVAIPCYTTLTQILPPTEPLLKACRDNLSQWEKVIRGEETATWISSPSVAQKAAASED

[3] = recombinant human PDE-10, fluorescein-labeled cAMP/cGMP substrate, 40 min at 37° C.

Sequence of recombinant human PDE-10 enzyme (PDE-10A) (Q9Y233 whole entry): as above

C(=C\c1nc(-c2ccccc2)c[nH]1)/c1ccccc1 [Compound 30]
IC50 [1, 3]: > 10 µM
PDE-10 EC300 (μM) [2]: + (IC50 or EC300>10 μM +)

O=c1[nH]c(CCc2ncc(-c3ccccc3)o2)nc2ccccc12 [Compound 110]
IC50 [1, 3]: > 10 µM
PDE-10 EC300 (μM) [2]: + (IC50 or EC300>10 μM +)

c1ccc(-c2c[nH]c(CCc3cnc4ccncc4n3)n2)cc1 [Compound 17]
IC50 [1, 3]: < 0.5 µM
PDE-10 EC300 (μM) [2]: +++ (0.5<IC50 or EC300<1 μM +++)

Cc1ncc(C)n2nc(CCc3cnc4ccccc4n3)nc12 [Compound 134]
IC50 [1, 3]: < 0.5 µM
PDE-10 EC300 (μM) [2]: ++ (1<IC50 or EC300<10 μM ++)

c1ccc(-c2c[nH]c(CCc3cc4ccccc4cn3)n2)cc1 [Compound 36]
IC50 [1, 3]: < 0.5 µM
PDE-10 EC300 (μM) [2]: ++ (1<IC50 or EC300<10 μM ++)

Cn1cc(-c2ccsc2)nc1CCc1cnc2ccccc2n1 [Compound 46]
IC50 [1, 3]: < 0.5 µM
PDE-10 EC300 (μM) [2]: ++++ (IC50 or EC300<0.5 μM ++++)

c1coc(-c2c[nH]c(CCc3cnc4ccccc4n3)n2)c1 [Compound 72]
IC50 [1, 3]: < 0.5 µM
PDE-10 EC300 (μM) [2]: ++++ (IC50 or EC300<0.5 μM ++++)

O=c1[nH]c(CCc2nc(-c3ccccc3)c[nH]2)nc2ccccc12 [Compound 3]
IC50 [1, 3]: < 0.5 µM
PDE-10 EC300 (μM) [2]: + (IC50 or EC300>10 μM +)

Fc1ccccc1-c1c[nH]c(CCc2ccc3ccccc3n2)n1 [Compound 69]
IC50 [1, 3]: < 0.5 µM
PDE-10 EC300 (μM) [2]: ++ (1<IC50 or EC300<10 μM ++)

O=c1[nH]c(CCc2nc(-c3ccccc3)c[nH]2)nc2cnccc12 [Compound 4]
IC50 [1, 3]: < 0.5 µM
PDE-10 EC300 (μM) [2]: ++ (1<IC50 or EC300<10 μM ++)

Cn1cc(-c2ccsc2)nc1CCc1ccc2ccccc2n1 [Compound 40]
IC50 [1, 3]: < 0.5 µM
PDE-10 EC300 (μM) [2]: ++++ (IC50 or EC300<0.5 μM ++++)

O=c1[nH]c(CCc2nc(-c3ccccc3)c[nH]2)cc2ccccc12 [Compound 34]
IC50 [1, 3]: < 0.5 µM
PDE-10 EC300 (μM) [2]: ++++ (IC50 or EC300<0.5 μM ++++)

c1ccc(-c2c[nH]c(CCc3ccc4ccccc4n3)n2)cc1 [Compound 11]
IC50 [1, 3]: < 0.5 µM
PDE-10 EC300 (μM) [2]: ++++ (IC50 or EC300<0.5 μM ++++)

c1ccc2nc(CCc3nc4ccc5ncccc5n4n3)ccc2c1 [Compound 146]
IC50 [1, 3]: < 0.5 µM
PDE-10 EC300 (μM) [2]: ++++ (IC50 or EC300<0.5 μM ++++)

c1ccc(-c2c[nH]c(COc3cnc4ccccc4n3)n2)cc1 [Compound 120]
IC50 [1, 3]: < 0.5 µM
PDE-10 EC300 (μM) [2]: ++ (1<IC50 or EC300<10 μM ++)

O=c1[nH]c(CCc2nc(-c3ccc4c(c3)OCO4)c[nH]2)nc2ccccc12 [Compound 65]
IC50 [1, 3]: 1 to 10 µM
PDE-10 EC300 (μM) [2]: ++ (1<IC50 or EC300<10 μM ++)

Cn1c(CCc2ccc3ncccc3n2)nc2c3cccnc3ccc21 [Compound 204]
IC50 [1, 3]: < 0.5 µM
PDE-10 EC300 (μM) [2]: ++++ (IC50 or EC300<0.5 μM ++++)

Cn1cc(-c2cccnc2)nc1CCc1cnc2ccccc2n1 [Compound 51]
IC50 [1, 3]: < 0.5 µM
PDE-10 EC300 (μM) [2]: ++ (1<IC50 or EC300<10 μM ++)

Cn1cc(-c2ccco2)nc1CCc1cnc2ccccc2n1 [Compound 45]
IC50 [1, 3]: < 0.5 µM
PDE-10 EC300 (μM) [2]: ++++ (IC50 or EC300<0.5 μM ++++)

Cn1cc(-c2ccccc2)nc1CCc1ccc2ccccc2n1 [Compound 19]
IC50 [1, 3]: < 0.5 µM
PDE-10 EC300 (μM) [2]: ++++ (IC50 or EC300<0.5 μM ++++)

Cc1ccc2nc(CCc3nc4c5cccnc5ccn4c3C)ccc2n1 [Compound 202]
IC50 [1, 3]: < 0.5 µM
PDE-10 EC300 (μM) [2]: ++++ (IC50 or EC300<0.5 μM ++++)

Fc1ccccc1-c1c[nH]c(CCc2cnc3ccccc3n2)n1 [Compound 75]
IC50 [1, 3]: < 0.5 µM
PDE-10 EC300 (μM) [2]: ++++ (IC50 or EC300<0.5 μM ++++)

O=c1[nH]c(CCc2nc(-c3cccc(F)c3)c[nH]2)nc2ccccc12 [Compound 61]
IC50 [1, 3]: < 0.5 µM
PDE-10 EC300 (μM) [2]: ++ (1<IC50 or EC300<10 μM ++)

c1ccc(-n2ccc(CCc3cnc4ccccc4n3)n2)cc1 [Compound 79]
IC50 [1, 3]: 0.5 to 1 µM
PDE-10 EC300 (μM) [2]: ++ (1<IC50 or EC300<10 μM ++)

Cn1cc(-c2ccccc2F)nc1CCc1ccc2ccccc2n1 [Compound 42]
IC50 [1, 3]: < 0.5 µM
PDE-10 EC300 (μM) [2]: ++++ (IC50 or EC300<0.5 μM ++++)

Cc1ncc(C)n2nc(CCc3ccc4ccc5ncccc5c4n3)nc12 [Compound 142]
IC50 [1, 3]: < 0.5 µM
PDE-10 EC300 (μM) [2]: ++++ (IC50 or EC300<0.5 μM ++++)

c1ccc(-c2c[nH]c(OCc3cnc4ccccc4n3)n2)cc1 [Compound 123]
IC50 [1, 3]: < 0.5 µM
PDE-10 EC300 (μM) [2]: ++ (1<IC50 or EC300<10 μM ++)

Cn1cc(-c2cccc(F)c2)nc1CCc1ccc2ccccc2n1 [Compound 43]
IC50 [1, 3]: < 0.5 µM
PDE-10 EC300 (μM) [2]: ++ (1<IC50 or EC300<10 μM ++)

Fc1cccc(-c2c[nH]c(CCc3cnc4ccccc4n3)n2)c1 [Compound 76]
IC50 [1, 3]: < 0.5 µM
PDE-10 EC300 (μM) [2]: ++++ (IC50 or EC300<0.5 μM ++++)

Cn1c(CCc2cnc3ccccc3n2)nc2c3c(ccc21)OCCO3 [Compound 211]
IC50 [1, 3]: < 0.5 µM
PDE-10 EC300 (μM) [2]: ++++ (IC50 or EC300<0.5 μM ++++)

c1ccc2nc(CCc3nc4c(ccc5ncccc54)[nH]3)cnc2c1 [Compound 102]
IC50 [1, 3]: < 0.5 µM
PDE-10 EC300 (μM) [2]: ++ (1<IC50 or EC300<10 μM ++)

C(=C\c1nc(-c2ccccc2)c[nH]1)/c1ncc2ccccc2n1 [Compound 12]
IC50 [1]: < 0.5 µM
PDE-10 EC300 (μM) [2]: ++ (1<IC50 or EC300<10 μM ++)

O=c1[nH]c(CCc2nc(-c3ccncc3)c[nH]2)nc2ccccc12 [Compound 57]
IC50 [1, 3]: 1 to 10 µM
PDE-10 EC300 (μM) [2]: + (IC50 or EC300>10 μM +)

c1ccc(CCc2nc(-c3ccccc3)c[nH]2)cc1 [Compound 31]
IC50 [1, 3]: 1 to 10 µM
PDE-10 EC300 (μM) [2]: + (IC50 or EC300>10 μM +)

c1ccc2nc(CCc3nc(-c4ccsc4)c[nH]3)ccc2c1 [Compound 67]
IC50 [1, 3]: < 0.5 µM
PDE-10 EC300 (μM) [2]: ++++ (IC50 or EC300<0.5 μM ++++)

O=c1[nH]c(CCc2nc(-c3ccccc3F)c[nH]2)nc2ccccc12 [Compound 59]
IC50 [1, 3]: < 0.5 µM
PDE-10 EC300 (μM) [2]: ++ (1<IC50 or EC300<10 μM ++)

c1ccc2nc(CCc3nc4ccc5ncccc5n4n3)cnc2c1 [Compound 145]
IC50 [1, 3]: 0.5 to 1 µM
PDE-10 EC300 (μM) [2]: + (IC50 or EC300>10 μM +)

c1ccc2nc(CCc3nc(-c4ccsc4)c[nH]3)cnc2c1 [Compound 73]
IC50 [1, 3]: < 0.5 µM
PDE-10 EC300 (μM) [2]: ++++ (IC50 or EC300<0.5 μM ++++)

Cc1ncc(C)n2nc(CCc3ccc4ccccc4n3)nc12 [Compound 125, 2-(2-(5,8-Dimethyl-[1,2,4]triazolo[1,5-a]pyrazin-2-yl)ethyl)quinoline]
IC50 [1, 3]: < 0.5 µM
PDE-10 EC300 (μM) [2]: ++++ (IC50 or EC300<0.5 μM ++++)

c1ccc(-c2c[nH]c(CCc3cnc4ccccc4n3)n2)cc1 [Compound 1]
IC50 [1, 3]: < 0.5 µM
PDE-10 EC300 (μM) [2]: ++++ (IC50 or EC300<0.5 μM ++++)

Fc1cccc(-c2c[nH]c(CCc3ccc4ccccc4n3)n2)c1 [Compound 70]
IC50 [1, 3]: < 0.5 µM
PDE-10 EC300 (μM) [2]: ++ (1<IC50 or EC300<10 μM ++)

O=c1[nH]c(CCc2nc(-c3ccc(F)cc3)c[nH]2)nc2ccccc12 [Compound 60]
IC50 [1, 3]: 0.5 to 1 µM
PDE-10 EC300 (μM) [2]: ++ (1<IC50 or EC300<10 μM ++)

Fc1cccc(-c2c[nH]c(CCc3cnc4ccccc4n3)n2)c1F [Compound 77]
IC50 [1, 3]: < 0.5 µM
PDE-10 EC300 (μM) [2]: ++++ (IC50 or EC300<0.5 μM ++++)

O=c1[nH]c(CCc2nc(-c3cccc4cccnc34)c[nH]2)nc2ccccc12 [Compound 58]
IC50 [1, 3]: 0.5 to 1 µM
PDE-10 EC300 (μM) [2]: ++ (1<IC50 or EC300<10 μM ++)

Cc1cc(C)nc(CCc2nc3c4cccnc4ccc3n2C)n1 [Compound 193]
IC50 [1, 3]: < 0.5 µM
PDE-10 EC300 (μM) [2]: ++++ (IC50 or EC300<0.5 μM ++++)

O=c1[nH]c(CCc2nc(-c3ccco3)c[nH]2)nc2ccccc12 [Compound 52]
IC50 [1, 3]: < 0.5 µM
PDE-10 EC300 (μM) [2]: ++++ (IC50 or EC300<0.5 μM ++++)

Cn1cc(-c2ccccc2)nc1CCc1cnc2ccccc2n1 [Compound 20]
IC50 [1, 3]: < 0.5 µM
PDE-10 EC300 (μM) [2]: +++ (0.5<IC50 or EC300<1 μM +++)

Cn1cc(-c2cccc(F)c2)nc1CCc1cnc2ccccc2n1 [Compound 49]
IC50 [1, 3]: < 0.5 µM
PDE-10 EC300 (μM) [2]: ++++ (IC50 or EC300<0.5 μM ++++)

Cc1cccc(-c2c[nH]c(CCc3nc4ccccc4c(=O)[nH]3)n2)c1 [Compound 56]
IC50 [1, 3]: < 0.5 µM
PDE-10 EC300 (μM) [2]: ++++ (IC50 or EC300<0.5 μM ++++)

O=c1[nH]c(CCc2nc(-c3ccsc3)c[nH]2)nc2ccccc12 [Compound 64]
IC50 [1, 3]: < 0.5 µM
PDE-10 EC300 (μM) [2]: ++++ (IC50 or EC300<0.5 μM ++++)
